Measurements as given in patent publication US7425640B2, “Substituted 5-carboxyamide pyrazoles and [1,2,4]triazoles as antiviral agents” (priority 2004, dated 2008).

target: HCV RNA-dependent RNA polymerase NS5B (Δ21) (Hepatitis C virus genotype 1b, UniProt P26663); assay: Assay for HCV RNA-dependent RNA polymerase activity (SPA, [3H]-GTP incorporation); type: biochemical; details: read-out: Δ21 Activity (IC50 μM); 50 nM NS5B (Δ21), class symbols
Outline: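 NS5B (Δ21), 50 nM, was incubated 3 h at room temperature with biotinylated oligoG12/polyC template, 5 μM GTP plus [3H]-GTP, in HEPES pH 7.3 with MgCl2 and NaCl. [3H]-GTP incorporation was read by streptavidin SPA. IC50 came from single experiments across 11 two-fold dilutions (0.05–50 μM).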

Sequence of HCV RNA-dependent RNA polymerase NS5B (Δ21) (P26663 2420-2989, stated change not applied): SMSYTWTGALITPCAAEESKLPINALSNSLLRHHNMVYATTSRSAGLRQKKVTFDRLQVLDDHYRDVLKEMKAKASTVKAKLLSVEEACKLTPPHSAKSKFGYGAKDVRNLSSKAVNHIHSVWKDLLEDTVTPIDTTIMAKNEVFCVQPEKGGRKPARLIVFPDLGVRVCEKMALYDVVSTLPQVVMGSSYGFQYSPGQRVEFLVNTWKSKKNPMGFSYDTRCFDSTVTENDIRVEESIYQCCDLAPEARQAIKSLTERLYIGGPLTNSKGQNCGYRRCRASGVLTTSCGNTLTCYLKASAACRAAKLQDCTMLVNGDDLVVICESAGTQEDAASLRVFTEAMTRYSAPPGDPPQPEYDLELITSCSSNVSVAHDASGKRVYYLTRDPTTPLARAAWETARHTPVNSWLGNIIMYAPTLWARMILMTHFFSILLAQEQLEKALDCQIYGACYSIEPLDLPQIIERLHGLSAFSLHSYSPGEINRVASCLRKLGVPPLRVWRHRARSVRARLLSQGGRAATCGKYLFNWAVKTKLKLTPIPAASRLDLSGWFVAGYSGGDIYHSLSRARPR

Row | Structure (SMILES) | IC50
1 | CC(=O)c1cc(C(=O)N[C@H]2CCCC[C@@H]2OCc2ccccc2)n(CC(=O)N[C@H]2CCCC[C@@H]2OCc2ccccc2)n1 [Compound 126] | 0.1 to 1 µM
2 | O=C(Cn1nc(NS(=O)(=O)c2cccc3ccccc23)cc1C(=O)N[C@H]1CCCC[C@@H]1OCc1ccccc1)N[C@H]1CCCC[C@@H]1OCc1ccccc1 [Compound 55] | 0.1 to 1 µM
3 | CS(=O)(=O)Nc1cc(C(=O)N[C@H]2CCCC[C@@H]2OCc2ccccc2)n(CC(=O)N[C@H]2CCCC[C@@H]2OCc2ccccc2)n1 [Compound 60] | 0.1 to 1 µM
4 | O=C(Cn1nc(C(=O)NC2CCCC2)cc1C(=O)N[C@H]1CCCC[C@@H]1OCc1ccccc1)N[C@H]1CCCC[C@@H]1OCc1ccccc1 [Compound 128] | 0.1 to 1 µM
5 | COc1ccccc1NC(=O)c1cc(C(=O)N[C@H]2CCCC[C@@H]2OCc2ccccc2)n(CC(=O)N[C@H]2CCCC[C@@H]2OCc2ccccc2)n1 [Compound 73] | 0.1 to 1 µM
6 | O=C(Cn1nc(C(=O)NCCCCCC(=O)ON2C(=O)CCC2=O)cc1C(=O)N[C@H]1CCCC[C@@H]1OCc1ccccc1)N[C@H]1CCCC[C@@H]1OCc1ccccc1 [Compound 151] | 0.1 to 1 µM
7 | O=C(Cn1nc(C(=O)N2CCN(c3ccccc3)CC2)cc1C(=O)N[C@H]1CCCC[C@@H]1OCc1ccccc1)N[C@H]1CCCC[C@@H]1OCc1ccccc1 [Compound 140] | 0.1 to 1 µM
8 | O=C(Cn1nc(NS(=O)(=O)c2cccc(Cl)c2)cc1C(=O)N[C@H]1CCCC[C@@H]1OCc1ccccc1)N[C@H]1CCCC[C@@H]1OCc1ccccc1 [Compound 80] | 0.1 to 1 µM
9 | CON=Cc1cc(C(=O)N[C@H]2CCCC[C@@H]2OCc2ccccc2)n(CC(=O)N[C@H]2CCCC[C@@H]2OCc2ccccc2)n1 [Compound 162] | 0.1 to 1 µM
10 | O=C(Cn1nc(C(=O)NCC2CC2)cc1C(=O)N[C@H]1CCCC[C@@H]1OCc1ccccc1)N[C@H]1CCCC[C@@H]1OCc1ccccc1 [Compound 100] | 0.1 to 1 µM
11 | O=C(Cn1nc(C(=O)O)cc1C(=O)N[C@H]1CCCC[C@@H]1NCc1ccccc1)N[C@H]1CCCC[C@@H]1OCc1ccccc1 [Compound 120] | 0.1 to 1 µM
12 | O=C(Cn1nc(C(=O)Nc2ccccc2)cc1C(=O)N[C@H]1CCCC[C@@H]1OCc1ccccc1)N[C@H]1CCCC[C@@H]1OCc1ccccc1 [Compound 54] | 0.1 to 1 µM

same assay, conditions: Δ21 Activity (IC50 μM), 50 nM NS5B (Δ21), class symbols

Row | Structure (SMILES) | IC50
13 | Cc1ccc(OCc2ccccc2)c(NC(=O)c2cc(-c3nnn[nH]3)nn2CC(=O)N[C@H]2CCCC[C@@H]2OCc2ccccc2)c1 [Compound 1] | < 0.05 µM
14 | O=C(Cn1nc(C(=O)Nc2nnn[nH]2)cc1C(=O)Nc1ccccc1OCc1ccccc1)N[C@H]1CCCC[C@@H]1OCc1ccccc1 [Compound 20] | 0.05 to 0.1 µM
15 | O=C(Cn1nc(C(=O)NCc2ccc(Cl)cc2)cc1C(=O)N[C@H]1CCCC[C@@H]1OCc1ccccc1)N[C@H]1CCCC[C@@H]1OCc1ccccc1 [Compound 46] | 0.05 to 0.1 µM
16 | O=C(Cn1nc(C(=O)NCCc2ccccn2)cc1C(=O)N[C@H]1CCCC[C@@H]1OCc1ccccc1)N[C@H]1CCCC[C@@H]1OCc1ccccc1 [Compound 176] | > 1 µM
17 | CCOCCN(CCOCC)C(=O)c1cc(C(=O)N[C@H]2CCCC[C@@H]2OCc2ccccc2)n(CC(=O)N[C@H]2CCCC[C@@H]2OCc2ccccc2)n1 [Compound 177] | > 1 µM
18 | O=C(Cn1nc(NS(=O)(=O)C(F)(F)F)cc1C(=O)N[C@H]1CCCC[C@@H]1OCc1ccccc1)N[C@H]1CCCC[C@@H]1OCc1ccccc1 [Compound 26] | 0.05 to 0.1 µM
19 | Nc1ccccc1Oc1ccccc1CNC(=O)c1cc(C(=O)O)nn1CC(=O)N[C@H]1CCCC[C@@H]1OCc1ccccc1 [Compound 209] | > 1 µM
20 | CN(C)C(=O)c1cc(C(=O)N[C@H]2CCCC[C@@H]2OCc2ccccc2)n(CC(=O)NC2CCCC[C@@H]2OCc2ccccc2)n1 (stereo partly shown) [Compound 197] | > 1 µM

same assay, conditions: Δ21 Activity (IC50 μM), 50 nM NS5B (Δ21), numeric values

Row | Structure (SMILES) | IC50
21 | O=C(Cn1nc(C(=O)O)cc1C(=O)Nc1cc(Cl)ccc1OCC1CCCCC1)N[C@H]1CCCC[C@@H]1OCc1ccccc1 [drawing 242] | 0.02 µM
22 | O=C(Cn1nc(C(=O)O)cc1C(=O)Nc1cc(Br)ccc1OCC1CCCCC1)N[C@H]1CCCC[C@@H]1OCc1ccccc1 [drawing 251] | 0.037 µM
